Test systems include NCI/ADR-RES ovarian; BT-549 breast; DU-145 prostate.
What all share (assay): NCI anticancer screen, dose series, 48 h

The results in this text go back to PubChem BioAssay (NCI).

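Tested at 5 concentrations; 48 h exposure; 96-well plates; endpoints linearly interpolated, else capped at highest concentration. At the GI50, growth is halved. TGI: concentration producing complete growth inhibition.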 Where a SMILES comes first, the peptide text is derived from it. [ ]: non-standard residue; d: D form.

With `COc1ccc(/C=C/C(=O)c2ccc(Nc3nc(Nc4ccc(F)cc4)nc(Nc4ccc(F)cc4)n3)cc2)cc1`, the GI50 in the assay with NCI/ADR-RES ovarian was 5.63 µM; in the assay with BT-549 breast, 14 µM; in the assay on DU-145 prostate, 40.2 µM. The figures for the TGI with NCI/ADR-RES ovarian, in the assay with BT-549 breast and in the assay with DU-145 prostate were 33 µM, 36.4 µM and > 100 µM, respectively.

With `Cc1cc2nc(-c3ccc(O)c(O)c3)n(Cc3ccc(O)c(O)c3)c2cc1C`, the GI50 is > 100 µM with NCI/ADR-RES ovarian, 28.9 µM with BT-549 breast and 40.7 µM in the assay with DU-145 prostate. Further, the TGI in the assay on NCI/ADR-RES ovarian, in the assay with BT-549 breast and in the assay with DU-145 prostate was > 100 µM in each case.

`CN1CCN(c2nc3cc(F)ccc3n3cccc23)CC1`: the TGI with NCI/ADR-RES ovarian and with BT-549 breast was > 100 µM in each case.

Consider `CCSc1nc(N)c2cnn(CC)c2n1`, for which the values for the GI50 in the assay on NCI/ADR-RES ovarian and in the assay with DU-145 prostate were 18.5 µM and 5.75 µM, respectively. The TGI in the assay with NCI/ADR-RES ovarian came out at 63.3 µM; in the assay on DU-145 prostate, 40.3 µM.

For `CC1=C(SCCC(=O)OC(C[Se]C2=C(C)C(=O)c3ccccc3C2=O)C(=O)NC(C)(C)C)C(=O)c2ccccc2C1=O` (stereo not given), the GI50 in the assay on NCI/ADR-RES ovarian was 0.701 µM; in the assay with BT-549 breast, 1.64 µM; with DU-145 prostate it was 1.49 µM. The figures for the TGI in the assay with NCI/ADR-RES ovarian, with BT-549 breast and in the assay on DU-145 prostate were 1.98 µM, 3.05 µM and 2.82 µM, respectively.

Take `CN(C)Cc1cc(C(C)(C)C)cc(CN(C)C)c1O`: the TGI in the assay on NCI/ADR-RES ovarian, in the assay on BT-549 breast and in the assay on DU-145 prostate was > 100 µM throughout.

Turning to `Cc1nc2sc(C(=O)Nc3ccccc3)c(N)c2cc1C(=O)c1ccccc1`, the values for the GI50 in the assay on NCI/ADR-RES ovarian, with BT-549 breast and in the assay with DU-145 prostate were 1.9 µM, 1.89 µM and 1.73 µM, respectively. The TGI in the assay with NCI/ADR-RES ovarian, with BT-549 breast and in the assay with DU-145 prostate was > 50 µM each time.

Turning to `CCCC(=O)OC(OC(=O)CCC)c1ccc([N+](=O)[O-])o1`, the TGI in the assay on NCI/ADR-RES ovarian, in the assay with BT-549 breast and in the assay with DU-145 prostate was > 100 µM each time.

For the compound `CCOc1ccccc1N=Cc1c2ccccc2cc2ccccc12`, the TGI with NCI/ADR-RES ovarian is > 66.1 µM; with BT-549 breast, 70.1 µM; in the assay with DU-145 prostate, 58.4 µM.

`O=C1C(OC(=O)c2ccccc2)=C(c2ccc(O)cc2)C(=O)C(OC(=O)c2ccccc2)=C1c1ccc(O)cc1`: the TGI in the assay with NCI/ADR-RES ovarian, in the assay on BT-549 breast and with DU-145 prostate was > 100 µM in each case.

`COc1ccc(F)cc1-c1ccnc2[nH]c(C3=CCN(C4CCC(CC(=O)O)CC4)CC3)cc12` (stereo not given): the GI50 is 2.15 µM in the assay on NCI/ADR-RES ovarian, 0.156 µM with BT-549 breast and 0.346 µM in the assay on DU-145 prostate. The TGI in the assay with NCI/ADR-RES ovarian was > 100 µM; with BT-549 breast, 0.903 µM; in the assay with DU-145 prostate, > 100 µM.

For `N=C1C=C(N)C(=O)c2ccccc21`, the values for the GI50 in the assay with NCI/ADR-RES ovarian, in the assay with BT-549 breast and in the assay with DU-145 prostate were 0.296 µM, 0.452 µM and 0.191 µM, respectively. The results for the TGI in the assay with NCI/ADR-RES ovarian, in the assay on BT-549 breast and in the assay with DU-145 prostate were 1.01 µM, 0.929 µM and 0.345 µM, respectively.

`CCOC(=O)N(O)c1ccc(/C=C/c2ccccc2)cc1`: the GI50 with NCI/ADR-RES ovarian is 13 µM; in the assay on BT-549 breast, 9.38 µM; in the assay on DU-145 prostate it was 11.2 µM. In addition, the figures for the TGI in the assay on NCI/ADR-RES ovarian, in the assay on BT-549 breast and in the assay on DU-145 prostate were 88.6 µM, 40 µM and > 88.6 µM, respectively.

As to `C=C1C(=O)OC2(C)CCC1CC1OC1(C)CCC=C(C)CCC2O` (stereo not given), the TGI in the assay with NCI/ADR-RES ovarian, with BT-549 breast and in the assay on DU-145 prostate was > 100 µM each time.

As to `CCN(CC)CCNc1ccc([N+](=O)[O-])c2nc3ccc(OC)cc3c(N)c12`, the TGI in the assay on NCI/ADR-RES ovarian turned out to be 3.53 µM; in the assay on BT-549 breast it was 2.72 µM; in the assay on DU-145 prostate it was 3.07 µM.

Consider `CN(C)CCOc1ccc2c(c1)C(=O)/C(=C\c1ncc([N+](=O)[O-])n1C)C2`, for which the values for the GI50 in the assay with NCI/ADR-RES ovarian, in the assay on BT-549 breast and in the assay with DU-145 prostate were 1.43 µM, 0.146 µM and 0.234 µM, respectively. The TGI in the assay on NCI/ADR-RES ovarian was determined as 4.55 µM; in the assay with BT-549 breast it was 0.529 µM; in the assay on DU-145 prostate, 0.661 µM.

Turning to `N#Cc1cc2c(cc1Cl)SC(=Nc1ccccc1)N(S(=O)(=O)c1ccc(Br)s1)S2(=O)=O`, the GI50 in the assay with NCI/ADR-RES ovarian is 19.8 µM; in the assay with BT-549 breast, 17.7 µM; with DU-145 prostate, 20.6 µM. In addition, the TGI was 43.8 µM with NCI/ADR-RES ovarian, 32.2 µM in the assay with BT-549 breast and 43.4 µM in the assay on DU-145 prostate.

For the compound `COC(=N)CCCl`, the TGI in the assay with NCI/ADR-RES ovarian, in the assay with BT-549 breast and with DU-145 prostate was > 100 µM in each case.

Turning to `COc1ccc2c(c1)[nH]c1c3ccc(OC)cc3oc(=O)c21`, the TGI in the assay on NCI/ADR-RES ovarian, in the assay with BT-549 breast and in the assay on DU-145 prostate was > 100 µM in each case.

For the compound `Nc1ccn(C2CC3OCC3O2)c(=O)n1` (stereo not given), the TGI in the assay on NCI/ADR-RES ovarian, with BT-549 breast and with DU-145 prostate was > 100 µM throughout.

Turning to `O=C1C=CC(=O)c2c(O)c(N(CCCl)CCCl)c(Cl)c(O)c21`, the TGI is > 10 µM in the assay with NCI/ADR-RES ovarian, > 7.26 µM in the assay with BT-549 breast and > 10 µM with DU-145 prostate.

Regarding `COc1ccc(C2C3=C(COC3=O)N(CCO)c3cc4c(cc32)CCC4)cc1` (stereo not given), the results for the GI50 in the assay with NCI/ADR-RES ovarian, in the assay with BT-549 breast and in the assay on DU-145 prostate were 3.89 µM, 2.38 µM and 5.04 µM, respectively. For the same compound, the TGI turned out to be 25.8 µM in the assay with NCI/ADR-RES ovarian, 25.2 µM with BT-549 breast and 20.2 µM with DU-145 prostate.

`Cc1c2ccccc2c(C)n2c1nc1cc(Cl)c(Cl)cc12`: the GI50 in the assay with NCI/ADR-RES ovarian, in the assay with BT-549 breast and in the assay on DU-145 prostate was > 100 µM throughout. Moreover, the TGI in the assay on BT-549 breast and in the assay with DU-145 prostate was > 100 µM each time.

With `C[C@@H](C[C@H](CCO)c1ccccc1)c1ccc2ccccc2c1`, the GI50 was 1.66 µM in the assay on NCI/ADR-RES ovarian, 1.68 µM in the assay with BT-549 breast and 1.47 µM in the assay on DU-145 prostate. Besides, the TGI with NCI/ADR-RES ovarian was 3.4 µM; with BT-549 breast, 3.1 µM; in the assay on DU-145 prostate, 2.84 µM.

In the case of `CSc1nc2ccc(C)cc2cc1/C=C1/C=C(c2ccccc2)NC1=O`, the results for the GI50 in the assay with NCI/ADR-RES ovarian, in the assay with BT-549 breast and with DU-145 prostate were 3.99 µM, 3.94 µM and 6.72 µM, respectively. The TGI in the assay with NCI/ADR-RES ovarian came to 87.5 µM; in the assay on BT-549 breast, 22.9 µM; in the assay with DU-145 prostate, 96.1 µM.

With `CSCC[C@H](NC(=O)[C@@H](N)CC(N)=O)C(=O)N[C@@H](Cc1c[nH]c2ccccc12)C(=O)N[C@@H](CCC(N)=O)C(=O)N[C@@H](CCC(=O)O)C(=O)N[C@H](C(=O)NCC(=O)N[C@@H](CCCCN)C(=O)N[C@H](C)C(=O)O)C(C)C` (H-NMWQEVGK[dA]-OH), the TGI in the assay on NCI/ADR-RES ovarian and in the assay with DU-145 prostate was > 100 µM each time.

As for `NC1=C(O)C(=O)C(c2c[nH]c3ccc(OCc4ccccc4)cc23)O1` (stereo not given), the TGI in the assay on NCI/ADR-RES ovarian, in the assay with BT-549 breast and in the assay with DU-145 prostate was > 100 µM throughout.

As for `COC(=O)c1cc(C)[nH]c2c(C)cc3nc4ccccc4c3c12`, the GI50 in the assay with NCI/ADR-RES ovarian is 3.87 µM; in the assay on BT-549 breast, 12.1 µM; with DU-145 prostate it was 11.8 µM. Also, the TGI was found to be 18 µM in the assay on NCI/ADR-RES ovarian, 25 µM with BT-549 breast and 24.7 µM in the assay on DU-145 prostate.

On to `c1ccc(-c2cc3n4c(-c5ccccc5)nn(-c5ccccc5)c4cnc-3n2)cc1`, for which the results for the GI50 in the assay on NCI/ADR-RES ovarian and in the assay on BT-549 breast were > 50 µM and 48.6 µM, respectively. Further, the TGI with NCI/ADR-RES ovarian and in the assay with BT-549 breast was > 50 µM throughout.

In the case of `CC(=O)OC1=C(CC(C)(C)C)C(=O)c2ccccc2C1=O`, the TGI was 85.3 µM with NCI/ADR-RES ovarian and > 100 µM with DU-145 prostate.

As to `CC(=O)/C(=C/N1CCN(C(=O)c2ccco2)C1=S)C(=O)c1ccccc1`, in the assay with BT-549 breast, the GI50 was 5.54 µM and the TGI worked out at 18.1 µM. Besides, in the assay on DU-145 prostate, the GI50 was 11 µM and the TGI worked out at 30.4 µM.

With `O=C1CC2OCC=C3CN4CCC5(C(=O)O)C(N1)C2C3CC45` (stereo not given), the TGI in the assay on NCI/ADR-RES ovarian, with BT-549 breast and in the assay with DU-145 prostate was > 100 µM throughout.

With `CC(C)OP(=O)(OC(C)C)/C(C#N)=C/c1c[nH]c2ccccc12`, the TGI in the assay on NCI/ADR-RES ovarian is > 100 µM; with BT-549 breast it was 89.3 µM; in the assay with DU-145 prostate, > 100 µM.

Take `O=C1/C(=C/c2ccc(O)cc2)Oc2ccccc21`: the TGI in the assay with NCI/ADR-RES ovarian, in the assay with BT-549 breast and with DU-145 prostate was > 100 µM throughout.

As for `N/C(CC(=O)NOC(=O)c1ccccc1)=N/OC(=O)c1ccccc1`, the TGI in the assay on NCI/ADR-RES ovarian is > 100 µM; with BT-549 breast it was 77.6 µM; in the assay on DU-145 prostate, > 100 µM.

As for `C[C@H]1CC[C@@H]2[C@@H](C)[C@H]3[C@H](C[C@H]4[C@@H]5CC=C6C[C@@H](O)CC[C@]6(C)[C@H]5CC[C@]34C)N2C1`, the TGI in the assay with NCI/ADR-RES ovarian, with BT-549 breast and with DU-145 prostate was > 100 µM each time.

Regarding `COc1ccc2c(c1)C=CC1C2CC[C@]2(C)C(NC(=O)/C=C/c3ccc(O)c(O)c3)CCC12` (stereo not given in full), the figures for the GI50 in the assay on NCI/ADR-RES ovarian, with BT-549 breast and in the assay with DU-145 prostate were 11.8 µM, 19.6 µM and 16.1 µM, respectively. Moreover, the TGI in the assay on NCI/ADR-RES ovarian came out at 33.5 µM; in the assay with BT-549 breast, 56.9 µM; in the assay with DU-145 prostate it was 39.6 µM.
